Laboratory results reported in patent US20090123507A1, “Metal Oxide Nanoparticles Coated With Specific N-Acylaminomethylene Phosphonates” (priority 2005, published 2009).

How the values were obtained:
E. coli (ATCC 10536) = test: European Standard Assay method EN 1040, antimicrobial bioassay; format: cell-based; settings: logarithmic scale (5 = factor of 100000); for Bioassay data E. coli 5 min: 5 min incubation; for Bioassay data E. coli 30 min: 30 min incubation
Description: (§1) The titanium dioxide particles coated with the appropriate phosphonates were subsequently assayed according the European Standard Assay method EN 1040 against two representative microbes:
(§2) S. aureaus (ATCC 6538) and E. coli (ATCC 10536).
(§3) Both microbes were incubated with the coated nanoparticles together with their corresponding free phosphonates within the same apparent concentrations for 5 and 30 minutes, respectively.
(§4) The data are given in a logarithmic scale which means that the number 5 indicates an increase of activity by a factor of 100000.

S. aureus (ATCC 6538) = test: as above; format: cell-based; settings: logarithmic scale (5 = factor of 100000); for Bioassay data S. aureus 5 min: 5 min incubation; for Bioassay data S. aureus 30 min: 30 min incubation
Description: as §1, §2, §3, §4

CCOP(=O)(CCC#N)OCC [Compound A]
<1: Bioassay data E. coli 5 min (E. coli (ATCC 10536)) | Bioassay data E. coli 30 min (E. coli (ATCC 10536)) | Bioassay data S. aureus 5 min (S. aureus (ATCC 6538)) | Bioassay data S. aureus 30 min (S. aureus (ATCC 6538))

CCCCCCCCCCCCCCCCCC(=O)NCCP(=O)(OCC)OCC [Compound J]
<1: Bioassay data E. coli 5 min (E. coli (ATCC 10536)) | Bioassay data E. coli 30 min (E. coli (ATCC 10536)) | Bioassay data S. aureus 5 min (S. aureus (ATCC 6538)) | Bioassay data S. aureus 30 min (S. aureus (ATCC 6538))

CCCCCCCC/C=C/CCCCCCCC(=O)NCCP(=O)(OCC)OCC [Compound K]
<1: Bioassay data E. coli 5 min (E. coli (ATCC 10536)) | Bioassay data E. coli 30 min (E. coli (ATCC 10536)) | Bioassay data S. aureus 5 min (S. aureus (ATCC 6538)) | Bioassay data S. aureus 30 min (S. aureus (ATCC 6538))

CCOP(=O)(CCNC(=O)CCCCCN=[N+]=[N-])OCC [Compound L]
<1: Bioassay data E. coli 5 min (E. coli (ATCC 10536)) | Bioassay data E. coli 30 min (E. coli (ATCC 10536)) | Bioassay data S. aureus 5 min (S. aureus (ATCC 6538)) | Bioassay data S. aureus 30 min (S. aureus (ATCC 6538))

CCOP(=O)(CCNC(=O)CCC(=O)O)OCC [Compound M]
<1: Bioassay data E. coli 5 min (E. coli (ATCC 10536)) | Bioassay data E. coli 30 min (E. coli (ATCC 10536)) | Bioassay data S. aureus 5 min (S. aureus (ATCC 6538)) | Bioassay data S. aureus 30 min (S. aureus (ATCC 6538))

CCOP(=O)(CCCCNC(=O)OCc1ccccc1)OCC [Compound N]
<1: Bioassay data E. coli 5 min (E. coli (ATCC 10536)) | Bioassay data E. coli 30 min (E. coli (ATCC 10536)) | Bioassay data S. aureus 5 min (S. aureus (ATCC 6538)) | Bioassay data S. aureus 30 min (S. aureus (ATCC 6538))
